Experiment [1] has as its system bacterial strains that express KPC β-lactamases. The experiment can be described thus: Synergy MIC / standard BLI potentiation MIC assay, strains expressing KPC β-lactamases. In kind it is cell-based. Conditions: for at least one KPC strain and/or a better spectrum of activity against KPC strains than Avibactam; in the presence of a β-lactam. An outline of the steps: (§1)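 CLSI broth microdilution in CAMHB, ~10^5 CFU/mL, 18–20 h at 37 °C with aeration; engineered E. coli kept on 25 μg/mL tetracycline. Potentiation: β-lactam 128–0.13 μg/mL with BLI fixed at 4 μg/mL; synergy MIC: BLI serially diluted with fixed β-lactam. MIC is the lowest concentration without visible turbidity.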

For experiment [2], the system named is bacterial strains that express the class D cephalosporinase OXA-15. The experiment can be described thus: Synergy MIC / standard BLI potentiation MIC assay, strains expressing OXA-15.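 Further: more active means a lower MIC or sMIC than Avibactam.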 In kind it is cell-based, E. coli. Conditions: in the presence of a β-lactam; comparator Avibactam (CCC). An outline of the steps: as §1

SMILES strings stand for the structures. Counter-ions that a name gives are not always drawn.

With `N[C@H]1CN[C@H](c2nnc([C@@H]3CC[C@@H]4CN3C(=O)N4OS(=O)(=O)O)o2)C1` [Compound 762, (2S,5R)-2-(5-((2S,4R)-4-aminopyrrolidin-2-yl)-1,3,4-oxadiazol-2-yl)-7-oxo-1,6-diazabicyclo[3.2.1]octan-6-yl hydrogen sulfate], in experiment [1], the “activity against bacterial strains that express KPC β-lactamase compared with Avibactam” value is reported as “more active than Avibactam”. For the same compound, the “activity against bacterial strains that express OXA-15 β-lactamase compared with Avibactam” value in experiment [2] is reported as “more active than Avibactam”.
Turning to `N[C@@H]1CN[C@@H](c2nnc([C@@H]3CC[C@@H]4CN3C(=O)N4OS(=O)(=O)O)o2)C1` [Compound 763, (2S,5R)-2-(5-((2R,4S)-4-aminopyrrolidin-2-yl)-1,3,4-oxadiazol-2-yl)-7-oxo-1,6-diazabicyclo[3.2.1]octan-6-yl hydrogen sulfate], the “activity against bacterial strains that express KPC β-lactamase compared with Avibactam” value in experiment [1] was “more active than Avibactam”. Also, the “activity against bacterial strains that express OXA-15 β-lactamase compared with Avibactam” value in experiment [2] is reported as “more active than Avibactam”.
For `O=C1N2C[C@@H](CC[C@H]2c2nnc(CC3CCNC3)o2)N1OS(=O)(=O)O` (stereo partly drawn) [Compound 764, (2S,5R)-7-oxo-2-(5-(pyrrolidin-3-ylmethyl)-1,3,4-oxadiazol-2-yl)-1,6-diazabicyclo[3.2.1]octan-6-yl hydrogen sulfate], the “activity against bacterial strains that express KPC β-lactamase compared with Avibactam” value in experiment [1] is reported as “more active than Avibactam”. The “activity against bacterial strains that express OXA-15 β-lactamase compared with Avibactam” value in experiment [2] was “more active than Avibactam”.
For the compound `O=C1N2C[C@@H](CC[C@H]2c2nnc(CN[C@H]3CCNC3)o2)N1OS(=O)(=O)O` [Compound 765, (2S,5R)-7-oxo-2-(5-(((S)-pyrrolidin-3-ylamino)methyl)-1,3,4-oxadiazol-2-yl)-1,6-diazabicyclo[3.2.1]octan-6-yl hydrogen sulfate], the “activity against bacterial strains that express KPC β-lactamase compared with Avibactam” value in experiment [1] is recorded as “more active than Avibactam”. For the same compound, the “activity against bacterial strains that express OXA-15 β-lactamase compared with Avibactam” value in experiment [2] is “more active than Avibactam”.
For the compound `O=C1N2C[C@@H](CC[C@H]2c2nnc(CN[C@@H]3CCNC3)o2)N1OS(=O)(=O)O` [Compound 766, (2S,5R)-7-oxo-2-(5-(((R)-pyrrolidin-3-ylamino)methyl)-1,3,4-oxadiazol-2-yl)-1,6-diazabicyclo[3.2.1]octan-6-yl hydrogen sulfate], the “activity against bacterial strains that express KPC β-lactamase compared with Avibactam” value in experiment [1] is “more active than Avibactam”. For the same compound, the “activity against bacterial strains that express OXA-15 β-lactamase compared with Avibactam” value in experiment [2] is given as “more active than Avibactam”.
Regarding `N=C1NCC(c2nnc([C@@H]3CC[C@@H]4CN3C(=O)N4OS(=O)(=O)O)o2)N1` (stereo partly drawn) [Compound 767, (2S,5R)-2-(5-(2-iminoimidazolidin-4-yl)-1,3,4-oxadiazol-2-yl)-7-oxo-1,6-diazabicyclo[3.2.1]octan-6-yl hydrogen sulfate], the “activity against bacterial strains that express KPC β-lactamase compared with Avibactam” value in experiment [1] is recorded as “more active than Avibactam”. Moreover, the “activity against bacterial strains that express OXA-15 β-lactamase compared with Avibactam” value in experiment [2] is recorded as “more active than Avibactam”.
Turning to `N[C@H]1CC[C@@H](c2nnc([C@@H]3CC[C@@H]4CN3C(=O)N4OS(=O)(=O)O)o2)C1` [Compound 768, (2S,5R)-2-(5-((1R,3S)-3-aminocyclopentyl)-1,3,4-oxadiazol-2-yl)-7-oxo-1,6-diazabicyclo[3.2.1]octan-6-yl hydrogen sulfate], the “activity against bacterial strains that express KPC β-lactamase compared with Avibactam” value in experiment [1] is “more active than Avibactam”. In addition, the “activity against bacterial strains that express OXA-15 β-lactamase compared with Avibactam” value in experiment [2] is “more active than Avibactam”.
Take `O=C1N2C[C@@H](CC[C@H]2c2nnc(CCNC3CCNCC3)o2)N1OS(=O)(=O)O` [Compound 770, (2S,5R)-7-oxo-2-(5-(2-(piperidin-4-ylamino)ethyl)-1,3,4-oxadiazol-2-yl)-1,6-diazabicyclo[3.2.1]octan-6-yl hydrogen sulfate]: the “activity against bacterial strains that express KPC β-lactamase compared with Avibactam” value in experiment [1] is reported as “more active than Avibactam”. Moreover, in experiment [2], the “activity against bacterial strains that express OXA-15 β-lactamase compared with Avibactam” value was “more active than Avibactam”.
Turning to `O=C1N2C[C@@H](CC[C@H]2c2nnc(CCCNC3CCNCC3)o2)N1OS(=O)(=O)O` [Compound 771, (2S,5R)-7-oxo-2-(5-(3-(piperidin-4-ylamino)propyl)-1,3,4-oxadiazol-2-yl)-1,6-diazabicyclo[3.2.1]octan-6-yl hydrogen sulfate], the “activity against bacterial strains that express KPC β-lactamase compared with Avibactam” value in experiment [1] is “more active than Avibactam”. In addition, the “activity against bacterial strains that express OXA-15 β-lactamase compared with Avibactam” value in experiment [2] is reported as “more active than Avibactam”.
Take `O=C1N2C[C@@H](CC[C@H]2c2nnc(CCCCNC3CCNCC3)o2)N1OS(=O)(=O)O` [Compound 772, (2S,5R)-7-oxo-2-(5-(4-(piperidin-4-ylamino)butyl)-1,3,4-oxadiazol-2-yl)-1,6-diazabicyclo[3.2.1]octan-6-yl hydrogen sulfate]: the “activity against bacterial strains that express KPC β-lactamase compared with Avibactam” value in experiment [1] is “more active than Avibactam”. In addition, the “activity against bacterial strains that express OXA-15 β-lactamase compared with Avibactam” value in experiment [2] was “more active than Avibactam”.
With `NC1CCN(Cc2nnc([C@@H]3CC[C@@H]4CN3C(=O)N4OS(=O)(=O)O)o2)CC1` [Compound 774, (2S,5R)-2-(5-((4-aminopiperidin-1-yl)methyl)-1,3,4-oxadiazol-2-yl)-7-oxo-1,6-diazabicyclo[3.2.1]octan-6-yl hydrogen sulfate], the “activity against bacterial strains that express KPC β-lactamase compared with Avibactam” value in experiment [1] is given as “more active than Avibactam”. In experiment [2], the “activity against bacterial strains that express OXA-15 β-lactamase compared with Avibactam” value is “more active than Avibactam”.
As for `O=C1N2C[C@@H](CC[C@H]2c2nnc(CCN3CCNCC3)o2)N1OS(=O)(=O)O` [Compound 776, (2S,5R)-7-oxo-2-(5-(2-(piperazin-1-yl)ethyl)-1,3,4-oxadiazol-2-yl)-1,6-diazabicyclo[3.2.1]octan-6-yl hydrogen sulfate], the “activity against bacterial strains that express KPC β-lactamase compared with Avibactam” value in experiment [1] was “more active than Avibactam”. In experiment [2], the “activity against bacterial strains that express OXA-15 β-lactamase compared with Avibactam” value is reported as “more active than Avibactam”.
As for `O=C1N2C[C@@H](CC[C@H]2c2nnc(CN3CCNCC3)o2)N1OS(=O)(=O)O` [Compound 777, (2S,5R)-7-oxo-2-(5-(piperazin-1-ylmethyl)-1,3,4-oxadiazol-2-yl)-1,6-diazabicyclo[3.2.1]octan-6-yl hydrogen sulfate], in experiment [1], the “activity against bacterial strains that express KPC β-lactamase compared with Avibactam” value was “more active than Avibactam”. Besides, the “activity against bacterial strains that express OXA-15 β-lactamase compared with Avibactam” value in experiment [2] was “more active than Avibactam”.
As to `O=C1N2C[C@@H](CC[C@H]2c2nnc([C@H]3CNCCN3)o2)N1OS(=O)(=O)O` [Compound 779, (2S,5R)-7-oxo-2-(5-((R)-piperazin-2-yl)-1,3,4-oxadiazol-2-yl)-1,6-diazabicyclo[3.2.1]octan-6-yl hydrogen sulfate], the “activity against bacterial strains that express KPC β-lactamase compared with Avibactam” value in experiment [1] is on record as “more active than Avibactam”. In experiment [2], the “activity against bacterial strains that express OXA-15 β-lactamase compared with Avibactam” value is listed as “more active than Avibactam”.
Turning to `N[C@H]1C[C@H](c2nnc([C@@H]3CC[C@@H]4CN3C(=O)N4OS(=O)(=O)O)s2)C1` [Compound 783, (2S,5R)-2-(5-((1r,3S)-3-aminocyclobutyl)-1,3,4-thiadiazol-2-yl)-7-oxo-1,6-diazabicyclo[3.2.1]octan-6-yl hydrogen sulfate], the “activity against bacterial strains that express KPC β-lactamase compared with Avibactam” value in experiment [1] is recorded as “more active than Avibactam”. Further, the “activity against bacterial strains that express OXA-15 β-lactamase compared with Avibactam” value in experiment [2] was “more active than Avibactam”.
